Measured values: ChEMBL document CHEMBL1137360, “Structure-activity relationships of a novel series of urotensin II analogues: identification of a urotensin II antagonist” (J Med Chem, 2006)
The source made the active and inactive calls. No cut-off for these calls is given here. Positions of bridges follow the written chain, without caps; N, C: chain ends. Non-standard residues stand in square brackets, D forms with d. Residues, ends and D or L forms follow the SMILES beside them. Tyr(3-NO2) = N[C@@H](Cc1ccc(O)c([N+](=O)[O-])c1)C(=O)O; Phe(4-COOH) = N[C@@H](Cc1ccc(C(=O)O)cc1)C(=O)O; Phe(4-tBu) = CC(C)(C)c1ccc(C[C@H](N)C(=O)O)cc1; Tyr(3-I) = N[C@@H](Cc1ccc(O)c(I)c1)C(=O)O; Oic = O=C(O)[C@@H]1C[C@@H]2CCCC[C@@H]2N1; Phe(4-NH2) = Nc1ccc(C[C@H](N)C(=O)O)cc1; Bta = N[C@@H](Cc1csc2ccccc12)C(=O)O; 2Thi = N[C@@H](Cc1cccs1)C(=O)O; Cha = N[C@@H](CC1CCCCC1)C(=O)O; NMeD = CN[C@@H](CC(=O)O)C(=O)O; pGlu = O=C1CC[C@@H](C(=O)O)N1; Pen = CC(C)(S)[C@H](N)C(=O)O; Aib = CC(C)(N)C(=O)O

Columns and labels:
Rattus norvegicus [1] = organism: Rattus norvegicus; assay: Agonist activity in rat aortic ring contraction assay relative to 1 uM phenylephrine; format: functional, Aorta
Urotensin-2 receptor = target: T1, Urotensin-2 receptor (Homo sapiens, UniProt Q9UKP6); assay: Displacement of [125I]human urotensin-2 from human GPR14 transfected in CHO cells; format: cell-based; details: for Log Ki: cho
T1 sequence (Q9UKP6 whole entry): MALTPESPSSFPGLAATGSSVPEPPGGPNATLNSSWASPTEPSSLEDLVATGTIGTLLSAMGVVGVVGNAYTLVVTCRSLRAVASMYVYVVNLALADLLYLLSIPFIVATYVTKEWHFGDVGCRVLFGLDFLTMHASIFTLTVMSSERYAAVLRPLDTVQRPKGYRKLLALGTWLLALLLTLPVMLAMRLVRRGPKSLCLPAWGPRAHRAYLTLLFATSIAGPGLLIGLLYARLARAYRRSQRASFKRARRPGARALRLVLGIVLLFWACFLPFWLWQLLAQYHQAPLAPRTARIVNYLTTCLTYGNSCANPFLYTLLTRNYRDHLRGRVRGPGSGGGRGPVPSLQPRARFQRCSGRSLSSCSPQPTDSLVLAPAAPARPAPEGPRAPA

Rattus norvegicus [2] = organism: Rattus norvegicus; assay: Agonist activity in rat aortic ring contraction assay; format: functional; details: Aorta
[3] = target: T2, Urotensin-2 receptor (Rattus norvegicus) (UniProt P49684); assay: Antagonist activity against 1 uM human urotensin-2-induced contraction of rat aortic ring; format: functional, tissue-based; details: Aorta
T2 sequence (whole entry): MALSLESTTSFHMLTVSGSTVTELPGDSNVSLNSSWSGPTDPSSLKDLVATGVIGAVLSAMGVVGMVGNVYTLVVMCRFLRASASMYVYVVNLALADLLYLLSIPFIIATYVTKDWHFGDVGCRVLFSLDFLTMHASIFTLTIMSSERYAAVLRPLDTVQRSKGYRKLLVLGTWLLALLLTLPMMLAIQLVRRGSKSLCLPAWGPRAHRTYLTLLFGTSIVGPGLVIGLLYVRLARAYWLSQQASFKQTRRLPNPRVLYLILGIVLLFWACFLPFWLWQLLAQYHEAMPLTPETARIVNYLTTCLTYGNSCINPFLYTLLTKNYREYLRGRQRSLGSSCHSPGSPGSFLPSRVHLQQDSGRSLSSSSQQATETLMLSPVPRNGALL

Rattus norvegicus [4] = organism: Rattus norvegicus; assay: Agonist activity in rat aortic ring contraction assay relative to 0.1 uM phenylephrine; format: functional, Aorta

| Ki (Urotensin-2 receptor) | EC50 (Rattus norvegicus [2]) | Activity [3] | Log Ki (Urotensin-2 receptor) | SMILES | Activity (Rattus norvegicus [1]) | Activity (Rattus norvegicus [4]) | Activity (Rattus norvegicus [1]; Aorta) |
| --- | --- | --- | --- | --- | --- | --- | --- |
| – | – | – | – | CC(C)[C@H](NC(=O)[C@@H]1CSSC[C@H](NC(=O)[C@@H](N)CC(=O)O)C(=O)N[C@@H](Cc2cccs2)C(=O)N[C@@H](Cc2c[nH]c3ccccc23)C(=O)N[C@@H](CCCCN)C(=O)N[C@@H](Cc2ccc(O)cc2)C(=O)N1)C(=O)O (H-DC[2Thi]WKYCV-OH; disulfide 2-7) [listing 1 of 2 here] | 94% | – | – |
| 0.912 nM | 5.89 nM | inactive | – | CC(C)[C@H](NC(=O)[C@@H]1CSSC[C@H](NC(=O)[C@@H]2CCC(=O)N2)C(=O)N[C@@H](Cc2ccccc2)C(=O)N[C@@H](Cc2c[nH]c3ccccc23)C(=O)N[C@@H](CCCCN)C(=O)N[C@@H](Cc2ccc(O)cc2)C(=O)N1)C(=O)O ([pGlu]CFWKYCV-OH; disulfide 2-7) | 98.6% | – | – |
| – | > 10000 nM | – | < -5 | CC(C)[C@H](NC(=O)[C@@H]1CSSC[C@H](NC(=O)[C@@H](N)CC(=O)O)C(=O)N2[C@@H](C[C@@H]3CCCC[C@@H]32)C(=O)N[C@@H](Cc2c[nH]c3ccccc23)C(=O)N[C@@H](CCCCN)C(=O)N[C@@H](Cc2ccc(O)cc2)C(=O)N1)C(=O)O (H-DC[Oic]WKYCV-OH; disulfide 2-7) | – | – | – |
| 132 nM | > 10000 nM | inactive | – | CC(C)C[C@@H]1NC(=O)[C@@H](NC(=O)[C@@H](N)CC(=O)O)CSSC[C@@H](C(=O)N[C@H](C(=O)O)C(C)C)NC(=O)[C@H](Cc2ccc(O)cc2)NC(=O)[C@H](CCCCN)NC(=O)[C@H](Cc2c[nH]c3ccccc23)NC1=O (H-DCLWKYCV-OH; disulfide 2-7) | – | 38.7% | – |
| > 10000 nM | > 10000 nM | inactive | – | CC(C)[C@H](NC(=O)[C@@H]1CSSC[C@H](NC(=O)[C@@H](N)CC(=O)O)C(=O)N[C@H](CC2CCCCC2)C(=O)N[C@@H](Cc2c[nH]c3ccccc23)C(=O)N[C@@H](CCCCN)C(=O)N[C@@H](Cc2ccc(O)cc2)C(=O)N1)C(=O)O | – | – | inactive |
| – | 288 nM | – | -8.95 | CC(C)[C@H](NC(=O)[C@@H]1CSSC[C@H](NC(=O)[C@@H](N)CC(=O)O)C(=O)N[C@@H](Cc2csc3ccccc23)C(=O)N[C@@H](Cc2c[nH]c3ccccc23)C(=O)N[C@@H](CCCCN)C(=O)N[C@@H](Cc2ccc(O)cc2)C(=O)N1)C(=O)O (H-DC[Bta]WKYCV-OH; disulfide 2-7) [listing 1 of 2 here] | – | – | – |
| 2.24 nM | 5.62 nM | inactive | – | CC(C)[C@H](NC(=O)[C@@H]1CSSC[C@H](NC(=O)C(C)(C)N)C(=O)N[C@@H](Cc2ccccc2)C(=O)N[C@@H](Cc2c[nH]c3ccccc23)C(=O)N[C@@H](CCCCN)C(=O)N[C@@H](Cc2ccc(O)cc2)C(=O)N1)C(=O)O (H-[Aib]CFWKYCV-OH; disulfide 2-7) | 83.9% | – | – |
| – | 8.91 nM | – | -8.54 | CC(C)[C@H](NC(=O)[C@@H]1CSSC[C@H](NC(=O)[C@@H](N)CC(=O)O)C(=O)N[C@@H](Cc2cccs2)C(=O)N[C@@H](Cc2c[nH]c3ccccc23)C(=O)N[C@@H](CCCCN)C(=O)N[C@@H](Cc2ccc(O)cc2)C(=O)N1)C(=O)O (H-DC[2Thi]WKYCV-OH; disulfide 2-7) [listing 2 of 2 here] | – | – | – |
| 74.1 nM | 1700 nM | inactive | – | CC(C)[C@H](NC(=O)[C@@H]1CSSC[C@H](NC(=O)[C@@H](N)CC(=O)O)C(=O)N[C@@H](Cc2ccccc2)C(=O)N[C@@H](Cc2c[nH]c3ccccc23)C(=O)N[C@@H](CCCCN)C(=O)N[C@@H](Cc2ccc(C(=O)O)cc2)C(=O)N1)C(=O)O (H-DCFWK[Phe(4-COOH)]CV-OH; disulfide 2-7) | 79.3% | – | – |
| – | – | – | – | CC(C)[C@H](NC(=O)[C@@H]1CSSC[C@H](NC(=O)[C@@H](N)CC(=O)O)C(=O)N[C@@H](Cc2ccc(C(C)(C)C)cc2)C(=O)N[C@@H](Cc2c[nH]c3ccccc23)C(=O)N[C@@H](CCCCN)C(=O)N[C@@H](Cc2ccc(O)cc2)C(=O)N1)C(=O)O (H-DC[Phe(4-tBu)]WKYCV-OH; disulfide 2-7) [listing 1 of 2 here] | 76.7% | – | – |
| 2.4 nM | 9.77 nM | inactive | – | CC(C)[C@H](NC(=O)[C@@H]1CSSC[C@H](NC(=O)[C@@H](N)CC(=O)O)C(=O)N[C@@H](Cc2ccccc2)C(=O)N[C@@H](Cc2c[nH]c3ccccc23)C(=O)N[C@@H](CCCCN)C(=O)N[C@@H](Cc2ccc(O)c([N+](=O)[O-])c2)C(=O)N1)C(=O)O (H-DCFWK[Tyr(3-NO2)]CV-OH; disulfide 2-7) | 95% | – | – |
| 1.62 nM | 6.03 nM | inactive | – | CN[C@@H](CC(=O)O)C(=O)N[C@H]1CSSC[C@@H](C(=O)N[C@H](C(=O)O)C(C)C)NC(=O)[C@H](Cc2ccc(O)cc2)NC(=O)[C@H](CCCCN)NC(=O)[C@H](Cc2c[nH]c3ccccc23)NC(=O)[C@H](Cc2ccccc2)NC1=O (H-[NMeD]CFWKYCV-OH; disulfide 2-7) | 93.1% | – | – |
| – | – | – | – | CC(C)[C@H](NC(=O)[C@@H]1CSSC[C@H](NC(=O)[C@@H](N)CC(=O)O)C(=O)N[C@@H](Cc2csc3ccccc23)C(=O)N[C@@H](Cc2c[nH]c3ccccc23)C(=O)N[C@@H](CCCCN)C(=O)N[C@@H](Cc2ccc(O)cc2)C(=O)N1)C(=O)O (H-DC[Bta]WKYCV-OH; disulfide 2-7) [listing 2 of 2 here] | 73.8% | – | – |
| 10 nM | 427 nM | inactive | – | CC(C)[C@H](NC(=O)[C@@H]1CSSC[C@H](NC(=O)[C@@H](N)CC(=O)O)C(=O)N[C@@H](Cc2ccccc2)C(=O)N[C@@H](Cc2c[nH]c3ccccc23)C(=O)N[C@@H](CCCCN)C(=O)N[C@@H](Cc2ccc(N)cc2)C(=O)N1)C(=O)O (H-DCFWK[Phe(4-NH2)]CV-OH; disulfide 2-7) | 97.7% | – | – |
| 9.12 nM | 23.4 nM | inactive | – | CC(C)[C@H](NC(=O)[C@@H]1CSSC[C@H](NC(=O)[C@@H](N)CC(=O)O)C(=O)N[C@@H](Cc2ccccc2)C(=O)N[C@@H](Cc2c[nH]c3ccccc23)C(=O)N[C@@H](CCCCN)C(=O)N[C@@H](Cc2ccc(C(C)(C)C)cc2)C(=O)N1)C(=O)O (H-DCFWK[Phe(4-tBu)]CV-OH; disulfide 2-7) | 88.5% | – | – |
| 263 nM | 933 nM | inactive | – | CC(C)[C@H](NC(=O)[C@@H]1CSSC[C@H](NC(=O)[C@H](C)N)C(=O)N[C@@H](CC2CCCCC2)C(=O)N[C@@H](Cc2c[nH]c3ccccc23)C(=O)N[C@@H](CCCCN)C(=O)N[C@@H](Cc2ccc(O)cc2)C(=O)N1)C(=O)O (H-AC[Cha]WKYCV-OH; disulfide 2-7) | 36.9% | – | – |
| 19.5 nM | 355 nM | inactive | – | CC(C)[C@H](NC(=O)[C@@H]1CSSC[C@H](NC(=O)[C@@H](N)CC(=O)O)C(=O)N[C@@H](CC2CCCCC2)C(=O)N[C@@H](Cc2c[nH]c3ccccc23)C(=O)N[C@@H](CCCCN)C(=O)N[C@@H](Cc2ccc(O)c(I)c2)C(=O)N1)C(=O)O (H-DC[Cha]WK[Tyr(3-I)]CV-OH; disulfide 2-7) | 82.1% | – | – |
| 1.23 nM | 5.01 nM | inactive | – | CC(C)[C@H](NC(=O)[C@@H]1CSSC[C@H](NC(=O)[C@@H](N)CC(=O)O)C(=O)N[C@@H](Cc2ccccc2)C(=O)N[C@@H](Cc2c[nH]c3ccccc23)C(=O)N[C@@H](CCCCN)C(=O)N[C@@H](Cc2ccc(O)cc2)C(=O)N1)C(=O)O (H-DCFWKYCV-OH; disulfide 2-7) | 102.1% | – | – |
| 155 nM | 1910 nM | inactive | – | CC(C)[C@H](NC(=O)[C@@H]1CSSC(C)(C)[C@H](NC(=O)[C@@H](N)CC(=O)O)C(=O)N[C@@H](CC2CCCCC2)C(=O)N[C@@H](Cc2c[nH]c3ccccc23)C(=O)N[C@@H](CCCCN)C(=O)N[C@@H](Cc2ccc(O)cc2)C(=O)N1)C(=O)O (H-D[Pen][Cha]WKYCV-OH; disulfide 2-7) | 14.8% | – | – |
| 2.95 nM | 4.79 nM | inactive | – | CC(C)[C@H](NC(=O)[C@@H]1CSSC[C@H](NC(=O)[C@@H](N)CCC(=O)O)C(=O)N[C@@H](Cc2ccccc2)C(=O)N[C@@H](Cc2c[nH]c3ccccc23)C(=O)N[C@@H](CCCCN)C(=O)N[C@@H](Cc2ccc(O)cc2)C(=O)N1)C(=O)O (H-ECFWKYCV-OH; disulfide 2-7) | 82.1% | – | – |
| – | 4.07 nM | – | -7.63 | CC(C)[C@H](NC(=O)[C@@H]1CSSC[C@H](NC(=O)[C@@H](N)CC(=O)O)C(=O)N[C@@H](Cc2ccc(C(C)(C)C)cc2)C(=O)N[C@@H](Cc2c[nH]c3ccccc23)C(=O)N[C@@H](CCCCN)C(=O)N[C@@H](Cc2ccc(O)cc2)C(=O)N1)C(=O)O (H-DC[Phe(4-tBu)]WKYCV-OH; disulfide 2-7) [listing 2 of 2 here] | – | – | – |
